The text below walks through data of BindingDB's records for doi:10.3109/14756366.2011.643303 (Ondokuz Mayis University, 2013).

Among the targets are Carbonic anhydrase 2 (Homo sapiens, UniProt P00918); Carbonic anhydrase 1 (Homo sapiens, UniProt P00915); Carbonic anhydrase 4 (Homo sapiens, UniProt P22748).
Holding throughout (assay): Esterase Activity Assay
Settings in all cases: pH 7.4

The next assay deals with T1, Carbonic anhydrase 3 (Bos taurus, UniProt Q3SZX4).
T1 sequence (Q3SZX4 whole entry): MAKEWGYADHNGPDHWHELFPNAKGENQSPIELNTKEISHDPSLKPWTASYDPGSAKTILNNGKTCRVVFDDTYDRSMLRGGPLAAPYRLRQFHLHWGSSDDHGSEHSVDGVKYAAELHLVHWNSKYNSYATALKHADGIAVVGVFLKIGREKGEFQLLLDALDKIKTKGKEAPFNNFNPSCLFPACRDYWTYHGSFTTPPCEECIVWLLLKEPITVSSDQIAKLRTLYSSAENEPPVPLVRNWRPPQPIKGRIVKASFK

Chain of Carbonic anhydrase 4 (P22748 whole entry): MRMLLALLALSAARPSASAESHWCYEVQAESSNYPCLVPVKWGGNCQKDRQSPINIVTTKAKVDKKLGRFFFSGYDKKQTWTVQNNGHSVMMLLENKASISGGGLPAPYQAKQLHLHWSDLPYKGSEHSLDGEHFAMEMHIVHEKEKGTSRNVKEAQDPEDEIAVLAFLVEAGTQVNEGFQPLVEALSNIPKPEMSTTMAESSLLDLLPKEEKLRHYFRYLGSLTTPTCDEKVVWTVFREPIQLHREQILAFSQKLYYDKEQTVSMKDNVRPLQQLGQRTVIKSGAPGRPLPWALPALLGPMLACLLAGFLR
Chain of Carbonic anhydrase 1 (P00915 whole entry): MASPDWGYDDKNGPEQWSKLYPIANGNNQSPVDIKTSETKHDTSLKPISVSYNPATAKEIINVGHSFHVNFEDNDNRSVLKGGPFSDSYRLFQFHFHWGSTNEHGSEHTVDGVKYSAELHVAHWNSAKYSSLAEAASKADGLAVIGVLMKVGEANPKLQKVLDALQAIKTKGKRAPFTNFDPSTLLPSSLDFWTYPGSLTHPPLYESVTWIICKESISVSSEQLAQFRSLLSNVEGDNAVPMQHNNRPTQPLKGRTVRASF

Consider `Oc1ccccc1`, for which the Ki (in general, a dissociation constant, usually derived from enzyme kinetics or from competition with a known ligand) at Carbonic anhydrase 2 was determined as 7.4 µM; on Carbonic anhydrase 1, 17.3 µM; at Carbonic anhydrase 4, 14.3 µM; at Carbonic anhydrase 3, 4.6 µM.

For the molecule `Oc1cccc(O)c1`, the inhibition constant (Ki) at Carbonic anhydrase 2 stood at 9.4 µM; at Carbonic anhydrase 1, 828 µM; at Carbonic anhydrase 4 it was 634 µM; at Carbonic anhydrase 3, 219 µM.

For `Oc1ccccc1O` [1,2-Dihydroxybenzene, XI], the results for the inhibition constant (Ki) at Carbonic anhydrase 2 and on Carbonic anhydrase 3 were 11.4 µM and 6.5 µM, respectively.

Consider `O=c1c(O)c(-c2ccc(O)cc2O)oc2cc(O)cc(O)c12` [2-(2,4-dihydroxyphenyl)-3,5,7-trihydroxychromen-4-one], for which the Ki turned out to be 4.4 µM at Carbonic anhydrase 2, 12.8 µM on Carbonic anhydrase 1, 15.7 µM on Carbonic anhydrase 4 and 21.3 µM at Carbonic anhydrase 3.

Take `O=c1c(O)c(-c2ccc(O)c(O)c2)oc2cc(O)cc(O)c12` [2-(3,4-dihydroxyphenyl)-3,5,7-trihydroxy-chromone;hydrate]: the Ki came to 2.4 µM on Carbonic anhydrase 2, 3.6 µM on Carbonic anhydrase 1, 13.8 µM at Carbonic anhydrase 4 and 9.1 µM on Carbonic anhydrase 3.

As for `O=c1cc(-c2ccc(O)c(O)c2)oc2cc(O)cc(O)c12` [2-(3,4-dihydroxyphenyl)-5,7-dihydroxy-4H-chromen-4-one], the Ki on Carbonic anhydrase 2 came to 0.74 µM; on Carbonic anhydrase 1, 2.2 µM; at Carbonic anhydrase 4, 4.4 µM; at Carbonic anhydrase 3 it was 5.4 µM.

Regarding `Oc1cc(O)c2c(c1)O[C@H](c1ccc(O)c(O)c1)[C@@H](O)C2` [(+)-Catechin], the results for the Ki on Carbonic anhydrase 1, on Carbonic anhydrase 4 and at Carbonic anhydrase 3 were 6.8 µM, 5.6 µM and 2.2 µM, respectively.

For `O=c1cc(-c2ccc(O)cc2)oc2cc(O)cc(O)c12` [Naringenin, 18], the Ki at Carbonic anhydrase 2 amounted to 2.7 µM; on Carbonic anhydrase 1, 4.1 µM; on Carbonic anhydrase 4, 9.1 µM; at Carbonic anhydrase 3, 11.6 µM.
